Reference: paper PMC11753388, “Bispecific Thio‐Linked Disaccharides as Inhibitors of Pseudomonas Aeruginosa Lectins LecA (PA‐IL) and LecB (PA‐IIL): Dual‐Targeting Strategy” (Chemistry (Weinheim an Der Bergstrasse, Germany), 2024)
pKd: −log10 of the molar value. Like-named read-outs stand apart in the source and are kept apart here.

Tests used:
LecB (PA-IIL) [1] = target: T1, LecB (PA-IIL) (Pseudomonas aeruginosa, UniProt Q9HYN5); assay: isothermal titration calorimetry; type: binding
T1 construct: soluble calcium-dependent homotetramer, one site per monomer
T1 sequence (Q9HYN5 entry or part of it): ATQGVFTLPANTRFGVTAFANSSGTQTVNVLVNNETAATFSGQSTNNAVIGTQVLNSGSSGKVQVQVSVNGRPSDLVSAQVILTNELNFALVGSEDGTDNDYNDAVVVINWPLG

LecA (PA-IL) [2] = target: T2, LecA (PA-IL) (Pseudomonas aeruginosa, UniProt Q05097); assay: isothermal titration calorimetry; type: binding
T2 construct: soluble calcium-dependent homotetramer, one site per monomer
T2 sequence (Q05097 2-122): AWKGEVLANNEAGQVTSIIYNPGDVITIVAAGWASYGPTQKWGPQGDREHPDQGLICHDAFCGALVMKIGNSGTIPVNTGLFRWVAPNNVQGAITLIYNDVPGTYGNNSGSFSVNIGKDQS
Excerpt: isothermal titration calorimetry on LecA (PA-IL)

LecB (PA-IIL) [3] = target: T1, LecB (PA-IIL); assay: yeast agglutination inhibition, microscopy; type: biochemical; conditions: LecB 625 μg/ml, yeast cells; complete inhibition
Excerpt: yeast agglutination inhibition, microscopy on LecB (PA-IIL)

LecA (PA-IL) [4] = target: T2, LecA (PA-IL); assay: hemagglutination inhibition, microscopy; type: biochemical; conditions: LecA 125 μg/ml, group O red blood cells; complete inhibition
Excerpt: hemagglutination inhibition, microscopy on LecA (PA-IL)

C[C@@H]1O[C@@H](S[C@H]2O[C@H](CO)[C@H](O)[C@H](O)[C@H]2O)[C@@H](O)[C@H](O)[C@@H]1O [compound 27, Thio‐L‐Fuc‐α(1,1)α‐D‐Gal]
pKd (LecB (PA-IIL) [1]): 6.72
pKd (LecA (PA-IL) [2]): 4.25

C[C@@H]1O[C@@H](S[C@@H]2O[C@@H](C)[C@@H](O)[C@@H](O)[C@@H]2O)[C@@H](O)[C@H](O)[C@@H]1O [compound 25, Thio‐L‐Fuc‐α(1,1)α‐L‐Fuc]
LecB / MIC (LecB (PA-IIL) [3]): 6.10 µM

C[C@@H]1O[C@@H](S[C@@H]2O[C@H](CO)[C@H](O)[C@H](O)[C@H]2O)[C@@H](O)[C@H](O)[C@@H]1O [compound 14, Thio‐L‐Fuc‐α(1,1)β‐D‐Gal]
pKd (LecB (PA-IIL) [1]): 6.46
pKd (LecA (PA-IL) [2]): 3.94

OC[C@H]1O[C@H](S[C@H]2O[C@H](CO)[C@@H](O)[C@H](O)[C@H]2O)[C@H](O)[C@@H](O)[C@H]1O [compound 30, Thio‐D‐Gal‐α(1,1)α‐D‐Glc]
LecA / MIC (LecA (PA-IL) [4]): 390 µM

OC[C@H]1OC(O)[C@H](O)[C@@H](O)[C@H]1O (stereo partly drawn) [D-Galactose]
pKd (LecA (PA-IL) [2]; read-out: LecA / KD, 300 μM lectin, 2 mM ligand, non-sigmoid curve, n apparent): 3.76

C[C@H]1O[C@H](S[C@H]2O[C@H](CO)[C@H](O)[C@H](O)[C@H]2O)[C@H](O)[C@@H](O)[C@H]1O [compound 28, Thio‐D‐Fuc‐α(1,1)α‐D‐Gal]
LecA / MIC (LecA (PA-IL) [4]): 390 µM

OC[C@H]1O[C@H](S[C@H]2O[C@H](CO)[C@H](O)[C@H](O)[C@H]2O)[C@H](O)[C@@H](O)[C@H]1O [compound 29, Thio‐D‐Gal‐α(1,1)α‐D‐Gal]
LecA / MIC (LecA (PA-IL) [4]): 97.5 µM

C[C@@H]1O[C@@H](S[C@H]2O[C@H](CO)[C@@H](O)[C@H](O)[C@H]2O)[C@@H](O)[C@H](O)[C@@H]1O [compound 26, Thio‐L‐Fuc‐α(1,1)α‐D‐Glc]
LecB / MIC (LecB (PA-IIL) [3]): 6.10 µM
